Patent US12599666B2, “Photolytic compounds and triplet-triplet annihilation mediated photolysis” (University of Massachusetts, priority 2019, dated 2026)
Like-named read-outs stand apart in the source and are kept apart here.

Legend:
[1] = Photophysical parameters of Sen and PPGs (UV-vis absorption, emission, energy levels); type: physicochemical; parameters: λabs maximum absorption wavelength / λem maximum emission wavelength: unit not given here; conditions: for λabs maximum absorption wavelength / λem maximum emission wavelength / ξ molar extinction coefficient: in toluene, 10 μM; for T1 triplet excited state: photosensitizers (Sen), from maximum phosphorescence emission
Method: Characterization: ^1H NMR spectra were recorded with a Bruker 500 MHz spectrometer. UV-Vis spectra were recorded on an Agilent Cary-5 spectrophotometer. Steady-state fluorescence spectra were measured on a HITACHI F-7000 spectrometer. […] The sample for TEM measurement was prepared by dropping the solution onto a carbon-coated copper grid following negative staining with 2.0% (w/v) phosphotungstic acid. The particle size and size distribution were measured by using dynamic light scattering (DLS) on a Malvern Nano-ZS particle size analyzer, excitation wavelength 532 nm. All samples in the Stern-Volmer quenching plots experiments were deaerated with argon for ca. 15 min before measurement and the gas flow was maintained during the measurements. For the TTA upconversion spectra measurement, the diode pumped solid-state laser (650 nm, continues wave, CW, Hi-Teach company, China) was used as the excitation light source and a modified spectrofluorometer was used to record the upconversion spectra. For the prodrug photolytic experiment, an All LED (Mightex Company) was used as the excitation light source.
From the absorption and emission spectra of Sen and PPGs, the triplet and singlet energy levels of PPG and Sen can be calculated. The maximum emission wavelength of phosphorescence is the triplet excited state energy level (T1) of the Sen. The maximum emission wavelength of fluorescence is the singlet excited state energy level (S1) of the PPGs. Moreover, according to the literature, we know the triplet excited energy levels of PPGs. The detail information is always in […]

[2] = Photolytic molecule experiment: TTAP photolytic reaction in solution under LED, HPLC yield; type: physicochemical
Method: Photolytic molecule experiment: The NIR LED (720 nm), far red LED (650 nm), green LED (530 nm), blue LED (476 nm) and deep blue (455 nm) were used for photolytic reactions. […] Then, the solution was excited with a LED (20 mW/cm^2) at 37° C. After the photolytic reaction, the raw product was dried and re-dissolved in CH3CN/H2O=(2/1, v/v) and HPLC was used to analyze the yield of product.

[3] = PPGs; from the literature; cited from earlier work
[4] = cited from earlier work
[5] = Photocleavage quantum yield / photolytic quantum efficiency calculation
Description: We compared photolytic quantum efficiency of the widely used PPG of Cou by using the UCNPs as phototransducer.

[6] = PdTPBP, far-red LED light (20 mW/cm^2, 650 nm)
[7] = PtTNP, NIR LED light (20 mW/cm^2, 720 nm, 1 h)
[8] = PtOEP, green LED light (20 mW/cm^2, 532 nm)
[9] = One photon: 120 mW/cm^2, λ > 400 nm
[10] = UCNPs as photo transducers, 570 mW cm^−2, λ = 980 nm

Compound: [Pd+2].c1ccc(-c2c3nc(c(-c4ccccc4)c4[n-]c(c(-c5ccccc5)c5nc(c(-c6ccccc6)c6[n-]c2c2ccccc62)-c2ccccc2-5)c2ccccc42)-c2ccccc2-3)cc1 [PdTPBP, meso-tetraphenyltetrabenzoporphine palladium complex]
- λabs maximum absorption wavelength [1]: 630
- λem maximum emission wavelength [1]: 790
- ξ molar extinction coefficient [1]: 11.0 10^4 M^−1 cm^−1
- T1 triplet excited state [1]: 1.55 eV

Compound: COc1ccc2cc(C(C)C(=O)OCc3ccc4c5cccc6cccc(c7cccc3c74)c65)ccc2c1 (stereo not drawn) [compound 16]
- photolytic yield [2, 6]: 78.5%
- photolytic yield [2, 7]: 17.4%

Compound: COc1ccc2c(c1)c(CC(=O)OCc1ccc3c4cccc5cccc(c6cccc1c63)c54)c(C)n2C(=O)c1ccc(Cl)cc1 [compound 17]
- photolytic yield [2, 6]: 51.7%
- photolytic yield [2, 7]: 9.2%

Compound: CCCCNC(=O)OCc1c2ccccc2cc2ccccc12 [compound 4]
- photolytic yield [2, 8]: 51.0%

Compound: CC(C)Cc1ccc(C(C)C(=O)OCc2ccc3c4cccc5cccc(c6cccc2c63)c54)cc1 (stereo not drawn) [compound 18]
- photolytic yield [2, 6]: 71.6%
- photolytic yield [2, 7]: 19.4%

Compound: CCC1=C(CC)c2cc3[n-]c(cc4nc(cc5[n-]c(cc1n2)c(CC)c5CC)C(CC)=C4CC)c(CC)c3CC.[Pt+2] [PtOEP, platinum octaethylporphyrin]
- λabs maximum absorption wavelength [1]: 533
- λem maximum emission wavelength [1]: 647
- ξ molar extinction coefficient [1]: 7.0 10^4 M^−1 cm^−1
- T1 triplet excited state [1]: 1.92 eV

Compound: CC(C)(C)OC(=O)NCC(=O)OCc1c2ccccc2cc2ccccc12 [compound 5]
- photolytic yield [2, 8]: 58.4%

Compound: CC(C)(C)OC(=O)N[C@@H](CSSC(C)(C)C)C(=O)OCc1ccc2c3cccc4cccc(c5cccc1c52)c43 [compound 14]
- photolytic yield [2, 6]: 81.2%
- photolytic yield [2, 7]: 23.3%

Compound: CC(C)(C)OC(=O)NCC(=O)OCc1ccc2c3cccc4cccc(c5cccc1c52)c43 [compound 12]
- photolytic yield [2, 6]: 89.2%
- photolytic yield [2, 7]: 29.6%

Compound: anthracene [reference compound]
- T1 triplet excited state [3]: 1.77 eV

Compound: O=C(CCCc1ccc(N(CCCl)CCCl)cc1)OCc1ccc2c3cccc4cccc(c5cccc1c52)c43 [compound 19]
- Yield (HPLC yield) ([2]; Compound 19 only, 720 nm LED, 1 h): No reaction
- Yield (HPLC yield) ([2]; Compound 19 only, argon, 720 nm LED, 1 h): No reaction
- Yield (HPLC yield) ([2]; Compound 19 only, argon, red light, 2 h): No reaction
- Yield (HPLC yield) ([2]; Compound 19 only, red light, 2 h): No reaction
- Yield (HPLC yield) ([2]; PdTPBP, air, red light, 2 h): 7
- Yield (HPLC yield) ([2]; PdTPBP, argon, dark, 2 h): No reaction
- Yield (HPLC yield) ([2]; PdTPBP, argon, red light, 1 h): 72.8
- Yield (HPLC yield) ([2]; PdTPBP, argon, red light, 2 h): 67.0
- photolytic yield [2, 6]: 72.8%
- photolytic yield [2, 7]: 30.4%
- Yield (HPLC yield) ([2]; PtTNP, air, 720 nm LED, 1 h): No reaction
- Yield (HPLC yield) ([2]; PtTNP, argon, dark, 1 h): No reaction
- Yield (HPLC yield) ([2]; PtTNP, argon, 720 nm LED, 1 h): 30.4

Compound: CC(C)COC(=O)OCc1c2ccccc2cc2ccccc12 [compound 3]
- photolytic yield [2, 8]: 72.3%

Compound: O=c1ccc2ccccc2o1 [Coumarin, coumarin]
- Photocleavage quantum yield [4, 9]: 0.13
- Photolytic efficiency (ε × Φ) [4, 9]: 806
- Photocleavage quantum yield [4, 10]: 0.13
- T1 triplet excited state [3]: 2.18 eV
- Overall photocleavage quantum yield; η (upconversion) [5, 10]: <0.02873

Compound: CCCCNC(=O)OCc1ccc2c3cccc4cccc(c5cccc1c52)c43 [compound 10]
- photolytic yield [2, 6]: 52.4%
- photolytic yield [2, 7]: 29.3%

Compound: CC(C)COC(=O)OCc1ccc2c3cccc4cccc(c5cccc1c52)c43 [compound 9]
- photolytic yield [2, 6]: 65.3%
- photolytic yield [2, 7]: 27.8%

Compound: c1cc2cccc3c4cccc5cccc(c(c1)c23)c54 [Perylene, perylene]
- Photocleavage quantum yield ([4]; 110 mW/cm^2 Hg lamp, >410 nm): 0.093
- Photolytic efficiency (ε × Φ) ([4]; 110 mW/cm^2 Hg lamp, >410 nm): 3627
- Photocleavage quantum yield ([4]; 125 WHg lamp, ≥410 nm): 0.093
- Photolytic efficiency (ε × Φ) ([4]; 125 WHg lamp, ≥410 nm): 3627
- Photocleavage quantum yield ([4]; TTAP, 20 mW/cm^2, λ = 650 nm): 0.093
- T1 triplet excited state [3]: 1.52 eV
- Overall photocleavage quantum yield ([5]; TTAP, 20 mW/cm^2, λ = 650 nm): 12400
